Earlier results as cited in article PMC7395068, “The evolution of strategies to minimise the risk of human drug-induced liver injury (DILI) in drug discovery and development” (Archives of Toxicology, 2020).
Where two headings read alike, the source gives them in different places.

Legend:
[1] = cited from earlier work
human hepatocytes = settings: In vitro Assay; ref Xu 2008; cited from earlier work
[2] = system: THLE or HepG2 cells, isolated mitochondria, BSEP; settings: In vitro Assay; ref Aleo 2019; cited from earlier work
PHH = settings: In vitro Assay; ref Proctor 2017; cited from earlier work
hLiMTs = settings: In vitro Assay; ref Proctor 2017; cited from earlier work
[3] = system: HepG2 C3A spheroid, BSEP, Glu/Gal in HepG2 cells, bioactivation; settings: In vitro Assay; ref Williams 2019; cited from earlier work
[4] = cited from earlier work; remark: listed apart in the source
hu-MPCC = settings: cited from earlier work
[5] = system: THLE-Null and THLE-3A4 cells; settings: In vitro Assay; ref Gustafsson 2014; cited from earlier work
RMPCC's = settings: cited from earlier work
PHH spheroids = settings: In vitro Assay; ref Vorrink 2018; cited from earlier work
[6] = system: isolated mouse liver mitochondria; settings: In vitro Assay; ref Porceddu 2012; cited from earlier work
rBsep = settings: In vitro Assay; ref Dawson 2012; cited from earlier work
[7] = ref Chen 2011; cited from earlier work
HepG2 cells = settings: cited from earlier work
[8] = In vitro Assay, ref Khetani 2012

CCc1oc2ccccc2c1C(=O)c1cc(Br)c(O)c(Br)c1 [benzbromarone]
+VE: DILI +VE (5-8), DILI -VE (-4) ([1]; ref Chen 2016) | Structural based (HCI) (human hepatocytes) | Partition Hybrid HRM Score [2] | Ro2 Hybrid HRM Score [2] | Bayesian Machine Learning [3] | In vivo DILI ([4]; […]) | In vivo DILI ([4]; ref Aleo 2019) | In vivo DILI ([4]; ref Gustafsson 2014) | In vivo DILI ([4]; ref Khetani 2012) | In vivo DILI ([4]; ref Proctor 2017) | In vivo DILI ([4]; ref Williams 2019) | In vivo DILI ([4]; ref Xu 2008) | HMPCC's (hu-MPCC; [8]) | THLE-Null [5] | THLE-Null/3A4 [5] | RMPCC's (RMPCC's; [8])
+VE (IC50 threshold of 100 µM): PHH ATP <100uM (PHH) | hLiMTs ATP <100uM (hLiMTs)
vMost-DILI-Concern: DILI severity category ([1]; ref Chen 2016)

Cc1cccc(Nc2ccccc2C(=O)O)c1C [mefenamic acid]
vMost-DILI-Concern: DILI severity category ([1]; ref Chen 2016)
-VE: In vivo DILI ([4]; ref Proctor 2017)
+VE: DILI +VE (5-8), DILI -VE (-4) ([1]; ref Chen 2016) | Structural based (HCI) (human hepatocytes) | In vivo DILI ([4]; […]) | In vivo DILI ([4]; ref Khetani 2012) | In vivo DILI ([4]; ref Porceddu 2012) | In vivo DILI ([4]; ref Vorrink 2018) | In vivo DILI ([4]; ref Xu 2008) | HMPCC's (hu-MPCC; [8]) | in vitro data EC2<=1x Cmax [6] | in vitro data EC20<=2uM [6] | RMPCC's (RMPCC's; [8])
+VE (IC50 threshold of 100 µM): PHH ATP <100uM (PHH) | hLiMTs ATP <100uM (hLiMTs)
+VE (IC20 < 20 × Cmax.tot cut-off): hLiMTs ATP <20 x Cmax (PHH spheroids)

Cn1cc[nH]c1=S [methimazole]
-VE: Partition Hybrid HRM Score [2] | Ro2 Hybrid HRM Score [2] | HMPCC's (hu-MPCC; [8]) | Inhibition of rBsep cutoff<1& cmax u>.2 (rBsep) | Inhibition of rBsep cutoff<3 (rBsep) | RMPCC's (RMPCC's; [8])

CNCCC=C1c2ccccc2CCc2ccccc21 [nortriptyline]
-VE: Structural based (HCI) (human hepatocytes)
+VE (IC20 < 20 × Cmax.tot cut-off): hLiMTs ATP <20 x Cmax (PHH spheroids)
vMost-DILI-Concern: DILI severity category ([1]; ref Chen 2016)
8: DILI Score (FDA) (1-8) [7]
+VE: DILI +VE (5-8), DILI -VE (-4) ([1]; ref Chen 2016) | Partition Hybrid HRM Score [2] | Ro2 Hybrid HRM Score [2] | In vivo DILI ([4]; ref Aleo 2019) | In vivo DILI ([4]; ref Khetani 2012) | In vivo DILI ([4]; ref Vorrink 2018) | In vivo DILI ([4]; ref Xu 2008) | HMPCC's (hu-MPCC; [8]) | RMPCC's (RMPCC's; [8])

CC(=O)[C@H]1CC[C@H]2[C@@H]3CCC4=CC(=O)CC[C@]4(C)[C@H]3CC[C@]12C [progesterone]
vLess-DILI-Concern: DILI severity category ([1]; ref Chen 2016)
+VE: DILI +VE (5-8), DILI -VE (-4) ([1]; ref Chen 2016) | In vivo DILI ([4]; ref Khetani 2012) | In vivo DILI ([4]; ref Xu 2008)
-VE: Structural based (HCI) (human hepatocytes) | hLiMTs ATP <20 x Cmax (PHH spheroids) | In vivo DILI ([4]; […]) | In vivo DILI ([4]; ref Vorrink 2018) | HMPCC's (hu-MPCC; [8]) | RMPCC's (RMPCC's; [8])

C=C[C@H]1C[N@@]2CC[C@H]1C[C@H]2[C@H](O)c1ccnc2ccc(OC)cc12 [quinine]
vLess-DILI-Concern: DILI severity category ([1]; in vivo)
+VE (IC20 < 20 × Cmax.tot cut-off): hLiMTs ATP <20 x Cmax (PHH spheroids)
+VE: DILI +VE (5-8), DILI -VE (-4) ([1]; in vivo) | Structural based (HCI) (HepG2 cells) | In vivo DILI ([4]; in vivo) | HMPCC's (hu-MPCC) | RMPCC's (RMPCC's)
